Data as given in PubChem BioAssay AID1918933 (Molecular Pharmacology Branch, DTP, NCI, 2023).

System: 186277-243-T-J2-PDC complex spheroid viability
Assay: Anticancer human tumor 186277-243-T-J2-PDC patient-derived colon adenocarcinoma cell line growth inhibition
Details: for IC50: curve of first compound; for viability, T/C: stronger effect = lower value; active means viability on the fitted dose curve at most 10% of control; inactive means the rest
Excerpt: Multicellular complex tumor spheroid response to LSD1 Inhibitor Iadademstat in combination with a variety of drugs and investigational agents in selected tumor cell lines
The current study was undertaken to assess response to LSD1 inhibitors in combination with standard-of-care drugs and investigational agents in solid tumor complex spheroid models as well as in the K-562 leukemia. Complex spheroids include a stromal component modeled by human endothelial cells (HUVEC) and fibroblasts modeled by human mesenchymal stem cells (MSCs). The concentration ranges selected for each drug and investigational agent were based upon clinically achievable concentrations if the clinical Cmax of the agent was known.
Compounds. The drugs and investigational agents used in this study are listed on Table 1. All of the agents used, including staurosporine (NSC755774) and gemcitabine (NSC613327), were obtained from the Developmental Therapeutics Program, NCI. FDA-approved anticancer drugs are available from the NCI at http://dtp.nci.nih.gov/branches/dscb/oncology_drugset_explanation.html. Drugs and investigational agents were >95% pure by proton nuclear magnetic resonance (NMR) and liquid chromatography/mass spectrometry (LC/MS). Stock solutions were prepared at 400x in DMSO, stored at -70 degrees C, and diluted in fresh medium prior to their use. The final concentration of DMSO in cell culture wells never exceeded 0.25% (v/v). The FDA-approved anticancer drug set is available from the Developmental Therapeutics Program at https://dtp.cancer.gov/organization/dscb/obtaining/available_plates.htm. All drugs and investigational agents were tested over a range starting from a high concentration at or near the clinical Cmax and decreasing in half-log increments. If the clinical Cmax for an agent had not been determined, the highest concentration tested was 10 microM.
Cell Lines. The patient-derived cancer cell (PDC) lines: 292921-168-R-J2-PDC, K24384-001-R-PDC, and 521955-158-R2-J5-PDC pancreatic carcinomas, 556581-035-R-J1 ovarian carcinoma, 324938-238-R-J1-PDC, 855422-203-R-J1-PDC and 883617-216-R-J1-PDC urothelial bladder carcinomas, 743489-274-T-PDC renal cell carcinoma, 138582-R-J1 Merkel cell tumor, K60290-347-R-J1 and K57222-313-R-J1-PDC glioblastomas, 653999-131-R-J2-PDC, LG0703-F948-PDC, and 349418-098-R-PDC non-small cell lung carcinomas, 885512-296-R-J2-PDC, 171881-019-R-J1-PDC breast carcinomas and 186277-243-T-J2-PDC and 233499-124-R-J2-PDC colon carcinomas were obtained from the NCI Patient-Derived Models Repository (PDMR, https://pdmr.cancer.gov). The established cell lines NCI/ADR-RES (RRID:CVCL_14520 and OVCAR-5 (RRID:CVCL_1628) ovarian carcinomas, 786-O (RRID:CVCL_1051) and A498 (RRID:CVCL_A498) renal cell carcinoma, NCI-H211 (ATCC, cat. CRL-5824; RRID:CVCL_1529), NCI-H196 (ATCC, cat. CRL-5823, RRID:CVCL_1509), SW 1271 (ATCC, cat. CRL-2177, RRID:CVCL_1716) and NCI-H1876 (ATCC, cat. CRL-5902, RRID:CVCL_1503) small cell lung carcinomas, MDA-MB-231 (RRID:CVCL_0062) and MDA-MB-468 (RRID:CVCL_0419)breast carcinomas (10-12). Pooled donor human umbilical vein endothelial cells (HUVEC, Lonza, cat. CC-2519) and human mesenchymal stem cells (hMSC, Lonza, cat. PT-2501) were purchased from Lonza (Walkersville, MD).
Cell Culture. All cells were maintained in an incubator at 37 degrees C and 5% CO2 with 95% humidity. The PDC lines were cultured according to standard operating procedures established by the NCI PDMR (https://pdmr.cancer.gov). Briefly all PDCs were thawed and cultured in Matrigel-coated flasks prepared with a working solution of 1X Ham's F-12 nutrient mix, without supplementation (Invitrogen, Waltham, MA, cat. 11765054), 100 U/mL penicillin-streptomycin (Invitrogen, cat. 15140122), and 2.5% Matrigel (Corning Inc., Corning, NY, cat. 354248) for the first three passages. […]
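Further: 7 day exposure to compounds.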

CC[C@@]1(O)C(=O)OCc2c1cc1n(c2=O)Cc2cc3c(CN(C)C)c(O)ccc3nc2-1 + NC1CCC(NC2CC2c2ccccc2)CC1
inactive: viability, T/C (second compound 0.1 µM, first compound 0.000316 µM) 106% | viability, T/C (second compound 0.1 µM, first compound 0.001 µM) 99.1% | viability, T/C (second compound 0.1 µM, first compound 0.00316 µM) 137% | viability, T/C (second compound 0.1 µM, first compound 0.01 µM) 131% | viability, T/C (second compound 0.1 µM, first compound 0.0316 µM) 102% | viability, T/C (second compound 0.1 µM, first compound 0.1 µM) 51.8% | viability, T/C (second compound 0.316 µM, first compound 0.000316 µM) 111% | viability, T/C (second compound 0.316 µM, first compound 0.001 µM) 108% | viability, T/C (second compound 0.316 µM, first compound 0.00316 µM) 131% | viability, T/C (second compound 0.316 µM, first compound 0.01 µM) 132% | viability, T/C (second compound 0.316 µM, first compound 0.0316 µM) 98.6% | viability, T/C (second compound 0.316 µM, first compound 0.1 µM) 52.8% | viability, T/C (second compound 1 µM, first compound 0.000316 µM) 107% | viability, T/C (second compound 1 µM, first compound 0.001 µM) 114% | viability, T/C (second compound 1 µM, first compound 0.00316 µM) 137% | viability, T/C (second compound 1 µM, first compound 0.01 µM) 131% | viability, T/C (second compound 1 µM, first compound 0.0316 µM) 103% | viability, T/C (second compound 1 µM, first compound 0.1 µM) 56.9% | viability, T/C (second compound 3.16 µM, first compound 0.000316 µM) 107% | viability, T/C (second compound 3.16 µM, first compound 0.001 µM) 124% | viability, T/C (second compound 3.16 µM, first compound 0.00316 µM) 147% | viability, T/C (second compound 3.16 µM, first compound 0.01 µM) 134% | viability, T/C (second compound 3.16 µM, first compound 0.0316 µM) 104% | viability, T/C (second compound 3.16 µM, first compound 0.1 µM) 61.6% | viability, T/C (second compound 10 µM, first compound 0.000316 µM) 104% | viability, T/C (second compound 10 µM, first compound 0.001 µM) 116% | viability, T/C (second compound 10 µM, first compound 0.00316 µM) 140% | viability, T/C (second compound 10 µM, first compound 0.01 µM) 131% | viability, T/C (second compound 10 µM, first compound 0.0316 µM) 110% | viability, T/C (second compound 10 µM, first compound 0.1 µM) 63.2%
> 100 nM: IC50 (second compound 0.1 µM) | IC50 (second compound 0.316 µM) | IC50 (second compound 1 µM) | IC50 (second compound 3.16 µM) | IC50 (second compound 10 µM)

COc1cc(C2c3cc4c(cc3C(OC3OC5COC(C)OC5C(O)C3O)C3COC(=O)C23)OCO4)cc(OC)c1O (stereo not given) + NC1CCC(NC2CC2c2ccccc2)CC1
> 3000 nM: IC50 (second compound 1 µM) | IC50 (second compound 3.16 µM) | IC50 (second compound 10 µM)
2710 nM: IC50 (second compound 0.1 µM)
2750 nM: IC50 (second compound 0.316 µM)
inactive: viability, T/C (second compound 0.1 µM, first compound 0.00949 µM) 93% | viability, T/C (second compound 0.1 µM, first compound 0.03 µM) 125% | viability, T/C (second compound 0.1 µM, first compound 0.0949 µM) 144% | viability, T/C (second compound 0.1 µM, first compound 0.3 µM) 98.6% | viability, T/C (second compound 0.1 µM, first compound 0.949 µM) 74.2% | viability, T/C (second compound 0.1 µM, first compound 3 µM) 46.9% | viability, T/C (second compound 0.316 µM, first compound 0.00949 µM) 120% | viability, T/C (second compound 0.316 µM, first compound 0.03 µM) 121% | viability, T/C (second compound 0.316 µM, first compound 0.0949 µM) 150% | viability, T/C (second compound 0.316 µM, first compound 0.3 µM) 98.7% | viability, T/C (second compound 0.316 µM, first compound 0.949 µM) 72.9% | viability, T/C (second compound 0.316 µM, first compound 3 µM) 46.1% | viability, T/C (second compound 1 µM, first compound 0.00949 µM) 109% | viability, T/C (second compound 1 µM, first compound 0.03 µM) 111% | viability, T/C (second compound 1 µM, first compound 0.0949 µM) 150% | viability, T/C (second compound 1 µM, first compound 0.3 µM) 99.5% | viability, T/C (second compound 1 µM, first compound 0.949 µM) 71.4% | viability, T/C (second compound 1 µM, first compound 3 µM) 49.2% | viability, T/C (second compound 3.16 µM, first compound 0.00949 µM) 111% | viability, T/C (second compound 3.16 µM, first compound 0.03 µM) 111% | viability, T/C (second compound 3.16 µM, first compound 0.0949 µM) 155% | viability, T/C (second compound 3.16 µM, first compound 0.3 µM) 104% | viability, T/C (second compound 3.16 µM, first compound 0.949 µM) 77.6% | viability, T/C (second compound 3.16 µM, first compound 3 µM) 52.3% | viability, T/C (second compound 10 µM, first compound 0.00949 µM) 113% | viability, T/C (second compound 10 µM, first compound 0.03 µM) 111% | viability, T/C (second compound 10 µM, first compound 0.0949 µM) 150% | viability, T/C (second compound 10 µM, first compound 0.3 µM) 109% | viability, T/C (second compound 10 µM, first compound 0.949 µM) 81.5% | viability, T/C (second compound 10 µM, first compound 3 µM) 57.4%
